# System: sleep apnea patient
# Assay: Oxygen saturation (SpO2) monitoring during sleep with Wellure's O2Ring in a sleep apnea patient
# Assay type: in vivo
# Excerpt: FIG. 1 is a diagram showing sleep apnea patient's oxygen saturation levels (SpO2). Oxygen saturation levels (SpO2) in the blood during sleep were monitored using Wellure's O2Ring.
# (§1) Oxygen saturation levels (SpO2) in the blood during sleep were monitored using Wellure's O2Ring.
# as §1
smiles,measurement,setting,value
CN[C@@H](C)[C@H](O)c1ccccc1 [ephedrine],breathing problems observed in FIG. 1,"FIG. 2, 25 mg ephedrine one hour before bed plus Avinol PM, in the first three hours, came back afterwards",greatly reduced
same,sleep apnea patient's oxygen saturation levels (SpO2),"FIG. 2, 25 mg of ephedrine one hour before going to bed along with sleeping pill Avinol PM just before going to bed",improved
same,sleep apnea patient's oxygen saturation levels (SpO2),"FIG. 3, 25 mg ephedrine one hour before bed plus one tablet Avinol PM just before bed, another 25 mg ephedrine three hours after going to bed",improved
same,breathing problems caused by sleep apnea,"general statement, dose not given",reduces

# Source: US20230035057A1, “METHOD OF TREATMENT OF SLEEP APNEA” (PRIMAVERA BIOSCIENCES, INC., priority 2021, published 2023)
